Test results reported in PMC7862291, “Full-length in meso structure and mechanism of rat kynurenine 3-monooxygenase inhibition” (Communications Biology, 2021).
Where “and” joins values, the source holds several entries; their conditions need not be identical. Equal entries are not always repeated.

What was measured:
[1] = biological target: T1, HEK293 cells stably expressing human KMO (Homo sapiens, UniProt O15229); assay: Cell-based human KMO inhibition assay (LC/MS of 3-hydroxykynurenine)
T1 construct: expressed in transfected cells
Method: (§1) HEK293 cells stably expressing human or rat KMO were maintained in DMEM containing 10% fetal bovine serum, 50 units/mL penicillin, 50 μg/mL streptomycin and 0.2 mg⁄mL zeocine. […] After 2 overnights, the medium was replaced with 10 μL/well of assay buffer (1 × HBSS containing 20 mM HEPES). Ten microliters per well of the diluted test compounds (final, 0–30 μM, 0.3% DMSO) were added to the respective wells. After ~30 min of pre-incubation at 37 °C, reactions were started by adding 20 μL of substrate solution containing 0.2 mM kynurenine. Reactions were run for 2 h at 37 °C, the assay buffer was discarded and the plate was immediately frozen and stored at −30 °C until LC/MS analysis.
(§2) An 80 µL volume of cold acetonitrile with 2% formic acid was added to the cell pellet in a 384-well plate and centrifuged at 3000 rpm for 10 min at 4 °C. A 40 µL volume of the supernatant was transferred to a new 384-well plate and evaporated to dryness under nitrogen gas at 45 °C. The residue was reconstituted in 100 µL of acetonitrile/water (10:90, v/v) with 0.1% formic acid, and 1 µL was injected into the LC-MS/MS system.
(§3) LC/MS/MS was performed on a Shimadzu UFLC Nexera X2 (Shimadzu Corporation, Japan) and an QTRAP® 5500 LC-MS/MS System (SCIEX, Framingham, USA). Chromatographic separation was performed using an Allure PFP Propyl analytical column (5 µm, 2.1 × 100 mm) maintained at 50 °C. The autosampler temperature was set at 15 °C. The mobile phase consisted of formic acid/water/acetonitrile/methanol (0.5/500/250/250, v/v/v/v) and the flow rate was set at 0.3 mL/min. 3-hydroxykynurenine was eluted from the LC column at a retention time of 1.2 min. The MS system was operated using electrospray ionization (ESI) in positive mode. The optimum conditions were curtain gas, 20 psi; ion spray voltage, 5500 V; heated nebulizer temperature (TEM), 700 °C; nebulizing gas (GS1), 70 psi; and heater gas (GS2), 70 psi. […] Analyst® software (SCIEX, Framingham, USA) was used for system control and MultiQuant™ Software (SCIEX, Framingham, USA) was used for data analysis.
(§4) Compound assays were analysed and plotted on graphs using Prism (GraphPad Software Inc. San Diego, CA, USA).

[2] = biological target: T2, HEK293 cells stably expressing rat KMO (Rattus norvegicus, UniProt O88867); assay: Cell-based rat KMO inhibition assay (LC/MS of 3-hydroxykynurenine)
T2 construct: expressed in transfected cells
Method: as §1, §2, §3, §4

[3] = biological target: T3, hKMO (Homo sapiens, UniProt O15229); assay: Human KMO enzyme (cell-free) assay, NADPH consumption by absorbance; assay type: biochemical
T3 construct: purchased Origene
Method: (§5) Human KMO was purchased from Origene and used to assay compounds. Full-length Rat-KMO purified for crystallisation was used to assay compounds. Full-length Rat-KMO-expressing membranes were used for mutant assays (Fig. 4b) only. […] Images were taken using Odyssey CLX (LI-COR Biosciences) and quantified using ImageStudio2.0 (LI-COR Biosciences) software.
(§6) Test compounds were dissolved in DMSO and diluted with assay buffer containing 50 mM HEPES, 2 mM MgCl2, 0.5 mM EGTA, 1 mM DTT, 0.05% Tween20 and 0.005% of antiform SI (pH = about 7.9) to prepare a 4% DMSO solution. […] After 5 min of pre-incubation, reactions were started by adding 10 μL of substrate solution containing 2.4 mM kynurenine and 0.6 mM NADPH. Reactions were run for 90 min at 30 °C, then terminated by adding 5 μL of stop buffer (40 mM maleimide, 2 mM WST-9 and 0.1 mM 1-methoky PMS in water). […] Liposomal assays were performed in the same manner except that the composition of the assay buffer was changed (phosphate-buffered saline, 2 mM MgCl2, 1 mM DTT, 0.05% Tween 20).
as §4

[4] = biological target: T4, Rat KMO (Rattus norvegicus, UniProt O88867); assay: Rat KMO enzyme (cell-free) assay, NADPH consumption by absorbance; assay type: biochemical
T4 construct: The GST-tagged full-length KMO (1-478) baculovirus vector contained a thrombin cleavage site; GST (thrombin cleavage site between GST and KMO) (N, cleaved yes); made in house; host or cells: Spodoptera frugiperda (Sf9), baculovirus
Method: as §5, §6, §4

T1 sequence (O15229 whole entry): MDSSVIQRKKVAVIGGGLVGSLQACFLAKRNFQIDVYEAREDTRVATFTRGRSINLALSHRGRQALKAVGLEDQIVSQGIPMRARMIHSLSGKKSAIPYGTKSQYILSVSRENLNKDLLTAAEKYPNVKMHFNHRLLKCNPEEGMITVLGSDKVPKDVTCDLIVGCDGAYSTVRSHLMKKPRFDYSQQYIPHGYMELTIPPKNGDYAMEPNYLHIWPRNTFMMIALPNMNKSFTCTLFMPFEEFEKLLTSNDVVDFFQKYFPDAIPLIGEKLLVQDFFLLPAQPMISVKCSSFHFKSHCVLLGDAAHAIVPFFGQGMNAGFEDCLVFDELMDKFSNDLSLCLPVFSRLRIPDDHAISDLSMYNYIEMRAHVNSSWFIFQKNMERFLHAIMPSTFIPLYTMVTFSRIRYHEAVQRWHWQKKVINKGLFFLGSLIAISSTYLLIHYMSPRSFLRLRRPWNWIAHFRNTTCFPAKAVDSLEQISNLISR
T3 sequence (O15229 whole entry): as above
T4 sequence (O88867 whole entry): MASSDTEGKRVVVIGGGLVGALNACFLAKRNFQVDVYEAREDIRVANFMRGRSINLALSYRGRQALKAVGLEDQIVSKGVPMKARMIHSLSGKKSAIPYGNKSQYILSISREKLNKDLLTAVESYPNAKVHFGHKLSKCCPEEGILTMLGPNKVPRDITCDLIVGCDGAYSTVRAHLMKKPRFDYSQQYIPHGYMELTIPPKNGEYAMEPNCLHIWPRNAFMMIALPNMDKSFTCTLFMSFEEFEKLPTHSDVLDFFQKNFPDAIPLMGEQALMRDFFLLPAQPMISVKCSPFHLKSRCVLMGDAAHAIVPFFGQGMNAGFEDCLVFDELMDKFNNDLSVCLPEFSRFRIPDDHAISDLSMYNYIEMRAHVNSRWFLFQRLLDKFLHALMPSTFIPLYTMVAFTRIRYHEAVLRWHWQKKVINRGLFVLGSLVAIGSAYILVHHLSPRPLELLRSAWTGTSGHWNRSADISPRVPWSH
T2 sequence (O88867 whole entry): as above

An inhibition at 0.03 µM ([1]; HEK293, conc 0.03 μM, duplicates, read-out: inhibition rate, Hs-KMO cellular assay (Figure 1C source data)) of 51.3%, an inhibition at 0.1 µM ([1]; HEK293, conc 0.1 μM, duplicates, read-out: inhibition rate, Hs-KMO cellular assay (Figure 1C source data)) of 76.7% and an inhibition at 0.3 µM ([1]; HEK293, conc 0.3 μM, duplicates, read-out: inhibition rate, Hs-KMO cellular assay (Figure 1C source data)) of 92.2% were found for `Cc1cnn(-c2cccc(C(=O)O)c2)c1-c1ccc(Cl)c(F)c1` [Compound 2] in this work. For the same compound, the inhibition at 1 µM ([1]; HEK293, conc 1 μM, duplicates, read-out: inhibition rate, Hs-KMO cellular assay (Figure 1C source data)) was 102%, the inhibition at 3 µM ([1]; HEK293, conc 3 μM, duplicates, read-out: inhibition rate, Hs-KMO cellular assay (Figure 1C source data)) was 104% and the inhibition at 10 µM ([1]; HEK293, conc 10 μM, duplicates, read-out: inhibition rate, Hs-KMO cellular assay (Figure 1C source data)) was 104%. The inhibition at 30 µM ([1]; HEK293, conc 30 μM, duplicates, read-out: inhibition rate, Hs-KMO cellular assay (Figure 1C source data)) was 105%, the IC50 ([1]; HEK293 cells expressing human KMO, LC/MS, read-out: Human cell-based assay IC50) was 0.03 µM and the “inhibition rate, Hs-KMO cellular assay (Figure 1C source data)” value (“inhibition rate, Hs-KMO cellular assay” for short) ([1]; conc 0.03 μM, duplicates) was 49.094%. For the same compound, the “inhibition rate, Hs-KMO cellular assay” value ([1]; conc 0.1 μM, duplicates) was 80.095%, the “inhibition rate, Hs-KMO cellular assay” value ([1]; conc 0.3 μM, duplicates) was 94.377% and the “inhibition rate, Hs-KMO cellular assay” value ([1]; conc 1 μM, duplicates) was 98.875%. The “inhibition rate, Hs-KMO cellular assay” value ([1]; conc 3 μM, duplicates) was 103.175%, the “inhibition rate, Hs-KMO cellular assay” value ([1]; conc 10 μM, duplicates) was 102.973% and the “inhibition rate, Hs-KMO cellular assay” value ([1]; conc 30 μM, duplicates) was 104.572%. For the same compound, the inhibition at 0.1 µM ([2]; HEK293, conc 0.1 μM, duplicates, read-out: inhibition rate, Rat-KMO cellular assay (Figure 1D source data)) was 6.06%, the inhibition at 0.3 µM ([2]; HEK293, conc 0.3 μM, duplicates, read-out: inhibition rate, Rat-KMO cellular assay (Figure 1D source data)) was 28.6% and the inhibition at 1 µM ([2]; HEK293, conc 1 μM, duplicates, read-out: inhibition rate, Rat-KMO cellular assay (Figure 1D source data)) was 29.2%. For the same compound, the inhibition at 3 µM ([2]; HEK293, conc 3 μM, duplicates, read-out: inhibition rate, Rat-KMO cellular assay (Figure 1D source data)) was 55.7%, the inhibition at 10 µM ([2]; HEK293, conc 10 μM, duplicates, read-out: inhibition rate, Rat-KMO cellular assay (Figure 1D source data)) was 81.2% and the inhibition at 30 µM ([2]; HEK293, conc 30 μM, duplicates, read-out: inhibition rate, Rat-KMO cellular assay (Figure 1D source data)) was 94.7%. For the same compound, the IC50 ([2]; HEK293 cells expressing rat KMO, LC/MS) was 1.9 µM, the “inhibition rate, Rat-KMO cellular assay (Figure 1D source data)” value (shortened to “inhibition rate, Rat-KMO cellular assay”) ([2]; conc 0.1 μM, duplicates) was 5.770% and the “inhibition rate, Rat-KMO cellular assay” value ([2]; conc 0.3 μM, duplicates) was 28.560%. For the same compound, the “inhibition rate, Rat-KMO cellular assay” value ([2]; conc 1 μM, duplicates) was 33.805%, the “inhibition rate, Rat-KMO cellular assay” value ([2]; conc 3 μM, duplicates) was 50.255% and the “inhibition rate, Rat-KMO cellular assay” value ([2]; conc 10 μM, duplicates) was 82.819%. The “inhibition rate, Rat-KMO cellular assay” value ([2]; conc 30 μM, duplicates) was 94.698%, the IC50 ([3]; cell-free enzyme assay, high kynurenine, read-out: Human KMO IC50) was 0.0071 µM and the “inhibition rate, Hs-KMO cell-free assay (Figure 1A source data)” value (from here on “inhibition rate, Hs-KMO cell-free assay”) ([3]; conc 0.0003 μM, duplicates) was 0.420% and -1.736%. For the same compound, the “inhibition rate, Hs-KMO cell-free assay” value ([3]; conc 0.001 μM, duplicates) was 9.914%, the inhibition at 0.001 µM ([3]; conc 0.001 μM, duplicates, read-out: inhibition rate, Hs-KMO cell-free assay (Figure 1A source data)) was 12.1% and the “inhibition rate, Hs-KMO cell-free assay” value ([3]; conc 0.003 μM, duplicates) was 25.289%. The inhibition at 0.003 µM ([3]; conc 0.003 μM, duplicates, read-out: inhibition rate, Hs-KMO cell-free assay (Figure 1A source data)) was 27.2%, the “inhibition rate, Hs-KMO cell-free assay” value ([3]; conc 0.01 μM, duplicates) was 59.651% and the inhibition at 0.01 µM ([3]; conc 0.01 μM, duplicates, read-out: inhibition rate, Hs-KMO cell-free assay (Figure 1A source data)) was 57.4%. The “inhibition rate, Hs-KMO cell-free assay” value ([3]; conc 0.03 μM, duplicates) was 87.349%, the inhibition at 0.03 µM ([3]; conc 0.03 μM, duplicates, read-out: inhibition rate, Hs-KMO cell-free assay (Figure 1A source data)) was 85.6% and the “inhibition rate, Hs-KMO cell-free assay” value ([3]; conc 0.1 μM, duplicates) was 95.022%. For the same compound, the inhibition at 0.1 µM ([3]; conc 0.1 μM, duplicates, read-out: inhibition rate, Hs-KMO cell-free assay (Figure 1A source data)) was 96.5%, the “inhibition rate, Hs-KMO cell-free assay” value ([3]; conc 0.3 μM, duplicates) was 105.860% and the inhibition at 0.3 µM ([3]; conc 0.3 μM, duplicates, read-out: inhibition rate, Hs-KMO cell-free assay (Figure 1A source data)) was 100%. The “inhibition rate, Hs-KMO cell-free assay” value ([3]; conc 1 μM, duplicates) was 100.287%, the inhibition at 1 µM ([3]; conc 1 μM, duplicates, read-out: inhibition rate, Hs-KMO cell-free assay (Figure 1A source data)) was 102% and the IC50 ([4]; cell-free enzyme assay, high kynurenine) was 0.15 µM. For the same compound, the “inhibition rate, Rat-KMO cell-free assay (Figure 1B source data)” value (shortened to “inhibition rate, Rat-KMO cell-free assay”) ([4]; conc 0.03 μM, duplicates) was 20.744%, the inhibition at 0.03 µM ([4]; conc 0.03 μM, duplicates, read-out: inhibition rate, Rat-KMO cell-free assay (Figure 1B source data)) was 18% and the “inhibition rate, Rat-KMO cell-free assay” value ([4]; conc 0.1 μM, duplicates) was 47.122%. For the same compound, the inhibition at 0.1 µM ([4]; conc 0.1 μM, duplicates, read-out: inhibition rate, Rat-KMO cell-free assay (Figure 1B source data)) was 46%, the “inhibition rate, Rat-KMO cell-free assay” value ([4]; conc 0.3 μM, duplicates) was 63.717% and the inhibition at 0.3 µM ([4]; conc 0.3 μM, duplicates, read-out: inhibition rate, Rat-KMO cell-free assay (Figure 1B source data)) was 62.8%. For the same compound, the “inhibition rate, Rat-KMO cell-free assay” value ([4]; conc 1 μM, duplicates) was 81.108%, the inhibition at 1 µM ([4]; conc 1 μM, duplicates, read-out: inhibition rate, Rat-KMO cell-free assay (Figure 1B source data)) was 84.3% and the “inhibition rate, Rat-KMO cell-free assay” value ([4]; conc 3 μM, duplicates) was 90.360%. The inhibition at 3 µM ([4]; conc 3 μM, duplicates, read-out: inhibition rate, Rat-KMO cell-free assay (Figure 1B source data)) was 87.2%, the “inhibition rate, Rat-KMO cell-free assay” value ([4]; conc 10 μM, duplicates) was 90.175% and the inhibition at 10 µM ([4]; conc 10 μM, duplicates, read-out: inhibition rate, Rat-KMO cell-free assay (Figure 1B source data)) was 91.4%. For the same compound, the “inhibition rate, Rat-KMO cell-free assay” value ([4]; conc 30 μM, duplicates) was 94.310%, the inhibition at 30 µM ([4]; conc 30 μM, duplicates, read-out: inhibition rate, Rat-KMO cell-free assay (Figure 1B source data)) was 91.7% and the “inhibition rate, Rat-KMO cell-free assay” value ([4]; conc 100 μM, duplicates) was 101.150%. For the same compound, the inhibition at 100 µM ([4]; conc 100 μM, duplicates, read-out: inhibition rate, Rat-KMO cell-free assay (Figure 1B source data)) was 89.9%.
